The text below walks through data of patent US8603513B2 (priority 2007, dated 2013).

“And” between values parts separate entries of the source, which are not always exact repeats. Identical values can stand only once. Like-named read-outs stand apart in the source and are kept apart here.

Assay [1] has as its system TSST-1 toxin produced by S. aureus. The format is cell-based, Staphylococcus aureus MN 8.
Assay [2] has as its system Staphylococcus aureus MN 8. The format is cell-based.
The subject of assay [3] is Lactobacillus crispatus (LMG 12005). The format is cell-based.
Assay [4] has as its system Lactobacillus gasseri (ATCC 9857). The format is cell-based.
Assay [5] has as its system Lactobacillus iners (LMG 18916). The format is cell-based.

In the case of `[Cl-].[Cl-].[Mg+2]` [Magnesium chloride], the “% TSST-1 Change (ug/ml) vs. control” value in assay [1] is 47%. The “Change in S. Aureus CFU/ml vs. control” value in assay [2] is recorded as “≦1 log”.
In the case of `CC(O)C(=O)[O-].CC(O)C(=O)[O-].[Ca+2]` (stereo not shown) [Calcium lactate], in assay [1], the “% TSST-1 Change (ug/ml) vs. control” value was 49% and 89% and 90%; the “% TSST-1 Change (ug/ml/mM) vs. control” value was 5.6% and 1.7%. Moreover, in assay [2], the “Change in S. Aureus CFU/ml vs. control” value was under 1 log. For the same compound, in assay [3], the “Change in L. cripatus vs. control” value is given as under 1 log. The “Change in L. gasseri vs. control” value in assay [4] was under 1 log. Further, the “Change in L. iners vs. control” value in assay [5] is reported as under 1 log.
With `CCCCCCCCCCCCCCCCCC(=O)O` [Calcium stearate, calcium stearate], in assay [1], the “% TSST-1 Change (ug/ml) vs. control” value is 65% and 62%; the “% TSST-1 Change (ug/ml/mM) vs. control” value is 6.6% and 0.6%.
In the case of `[Ca+2].[Cl-].[Cl-]` [Calcium chloride], in assay [1], the “% TSST-1 Change (ug/ml) vs. control” value was 82%; the “% TSST-1 Change (ug/ml/mM) vs. control” value is 2.5% and 1.1%. Further, the “% TSST-1 Change (ug/ml) vs. control” value in assay [1] (18-20 h, 37° C.) is listed as 37%. In addition, the “Change in S. Aureus CFU/ml vs. control” value in assay [2] is given as “≦1 log”.
`[Cl][Cu][Cl]` [Copper chloride]: the “Change in S. Aureus CFU/ml vs. control” value in assay [2] is over 3 log.
Take `O=C1O[C@H]([C@@H](O)CO)C(O)=C1O` [Calcium ascorbate, calcium ascorbate]: in assay [2], the “Change in S. Aureus CFU/ml vs. control” value is over 2 log and the “growth of S. aureus relative to controls” value is recorded as “virtually eliminate the growth”.
`[Cl][Fe][Cl]` [Ferrous chloride]: in assay [2], the “Change in S. Aureus CFU/ml vs. control” value is over 2 log.
Consider `[Cl-].[Cl-].[Zn+2]` [Zinc chloride], for which the “Change in S. Aureus CFU/ml vs. control” value in assay [2] is over 2 log.
